Columns and labels:
CMY-10 = CMY-10 (Klebsiella aerogenes, UniProt Q99QC1); assay: nitrocefin hydrolysis assay at […] inhibitor; assay type: biochemical; settings: read-out: % inhibition at 200 μM
AmpC BER = AmpC BER (Escherichia coli, UniProt A7TUE6); assay: nitrocefin hydrolysis steady-state kinetics, Lineweaver-Burk; assay type: biochemical
Chain of AmpC BER (A7TUE6 20-379): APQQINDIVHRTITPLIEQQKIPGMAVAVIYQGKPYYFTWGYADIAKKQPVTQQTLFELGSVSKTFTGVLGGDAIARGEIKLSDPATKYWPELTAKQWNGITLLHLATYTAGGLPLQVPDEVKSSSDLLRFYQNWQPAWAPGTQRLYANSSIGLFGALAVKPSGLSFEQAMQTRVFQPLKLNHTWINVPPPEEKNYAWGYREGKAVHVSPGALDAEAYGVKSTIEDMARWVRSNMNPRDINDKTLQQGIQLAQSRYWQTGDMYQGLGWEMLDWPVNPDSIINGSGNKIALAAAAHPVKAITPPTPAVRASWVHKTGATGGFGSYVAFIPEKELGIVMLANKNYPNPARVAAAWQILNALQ

Chain of CMY-10 (Q99QC1 24-382): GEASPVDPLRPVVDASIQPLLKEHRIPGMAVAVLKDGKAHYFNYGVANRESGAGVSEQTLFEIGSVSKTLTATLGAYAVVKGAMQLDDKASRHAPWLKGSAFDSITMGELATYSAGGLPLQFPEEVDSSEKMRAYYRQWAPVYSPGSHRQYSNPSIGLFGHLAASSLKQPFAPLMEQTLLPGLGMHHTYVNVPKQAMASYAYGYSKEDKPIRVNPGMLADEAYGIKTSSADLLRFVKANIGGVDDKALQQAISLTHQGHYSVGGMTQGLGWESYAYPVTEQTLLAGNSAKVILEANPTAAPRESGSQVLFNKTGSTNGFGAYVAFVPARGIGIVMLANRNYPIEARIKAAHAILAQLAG

`C=C1CCC[C@@H]2[C@@](C)(CCC(CCCc3ccoc3)COS(=O)(=O)O)[C@H](C)CC[C@]12C` (some centres unmarked) [Hali 5, halisulfate 5] gave an inhibition at 200 µM (CMY-10) of roughly 90% and a Ki (AmpC BER) of 5.87 µM.

Source: article PMC7773887 (Computational and Structural Biotechnology Journal, 2020)
